Laboratory results as given in patent publication US8580789B2, “Treating glaucoma” (The Cleveland Clinic Foundation, priority 2007, dated 2013).

Experiments:
[1] = system: porcine corneas; assay: Corneal surface wave elastometry after standard crosslinking or flash-linking; details: group 1
Procedure: To investigate comparative cornea stiffness values in porcine corneas after standard crosslinking and a new, rapid method of crosslinking (flash-linking) using surface wave elastometry (Sonic Eye, PriaVision Inc, Menlo Park, Calif.).
Six porcine eyes were treated using a UVA double diode with 4.2 mW/cm2 UVA at 370 nm while applying 0.1% riboflavin-5-phosphate drops to the central cornea every 5 minutes as a photosensitizer for 30 min (group 1). The next 6 porcine corneas were treated with a single application of a customized photoactive crosslinking agent (PriaVision Inc) and 30 seconds of UVA light at the same power and wavelength (group 2). Following both experimental treatments, the Sonic Eye system was used to measure ultrasound surface wave propagation time between two fixed-distance transducers applied to the cornea along central horizontal and vertical positions. Intraocular pressure was continuously monitored using a digital pressure monitor display (Infinity SC9000XL, Drager medical, Lubeck, Germany) after vitreous chamber cannulation with a 23-gauge needle.

[2] = system: optic nerve/lamina cribrosa complex; assay: Surface wave velocity (stiffness) across the optic nerve/lamina cribrosa complex of whole globes, Sonic Eye elastometer; set-up: species or system porcine; details: Example 1 group 2
Procedure: (§1) Surface wave velocity (SWV) is a measure of tissue stiffness, and is performed by detecting the velocity of an ultrasonic wave between 2 points (Sonic Eye, Priavision, Menlo Park, Calif.) (Dupps W J, et al., J Refract Surg; 23: 66-75 (2007)). 19 porcine eyes were divided into 2 groups. In group 1 (6 eyes), the SWV across the exposed optic nerve/lamina cribrosa complex (ON/LCC) was initially measured at the eyes' physiologic IOP and at 100 mmHg. The porcine globes were cannulated with IV tubing to facilitate the change in IOP. In group 2 (13 eyes), the pre-treatment SWV was measured across the same region and atop the peri-papillary sclera, after which both regions were treated with riboflavin 1%, Q 5 min×6, and UVA irradiation (˜365 nm at 3 mW/cm^2) for 30 min per eye. The SWV was then re-measured in each eye at the pre-treatment IOP and at 100 mmHg.
(§2) An annular sponge soaked in GTA was exposed to the peripapillary sclera for ˜30 minutes, and not the ON/LCC. Measurements were repeated as above, but also along each quadrant of peripapillary sclera to ensure uniformity and symmetry of crosslinking around the ON/LCC. The results are summarized as follows:
(§3) Eighteen porcine globes were divided evenly into 3 groups. The optic nerves were transected to expose the ON/LC, and each globe was infused through an in-line pressure transducer for direct IOP control. Surface wave velocity, a non-destructive measure of tissue stiffness, was measured across the ON/LC and PS before and after collagen crosslinking at IOP of 10 and 30 mmHg (groups 1 and 2) and at each globe's preinflation IOP and 80 mmHg (group 3). In group 3, papillary strain was measured by analyzing the displacement of fiducial marks immediately adjacent to the ON/LC using digital photography.
(§4) Surface wave velocity (SWV) is a measure of tissue stiffness that has been used in dermatologic applications to measure age-related changes (Potts R O, et al., J Invest Dermatol.; 82(1):97-100 (1984); Potts R O, et al., J Biomech.; 16(6):365-372 (1983); Davis B R, et al., Exp Gerontol; 24(3):201-210 (1989)), softening effects of tissue hydration and skin creams (Vexler A, et al., J Invest Dermatol; 113(5):732-739 (1999)), and sclerosing effects of radiation on breast skin (Gorodetsky R, et al., Int J Radiat Oncol Biol Phys.; 45(4):893-900 (1999)). When acoustic waves in the 0.5 to 30 kHz frequency range are used, propagation speed in skin is related to the density and stiffness of the tissue (Pereira J M, et al., J Biomech.; 23(8):745-751 (1990)). A prototype handheld ocular surface elastometer (Sonic Eye, Priavision, Menlo Park, Calif.) with an operating frequency within this range (4 kHz) and a fixed 4.5 mm wave propagation distance has been described in detail elsewhere (Dupps W J Jr, et al., J Refract Surg.; 23(1):66-75 (2007)). The Sonic Eye was used in this study as a non-destructive means of measuring local in situ tissue stiffness across and around the optic nerve head.
Eighteen porcine eyes were obtained from a local abattoir (Heffelfingers Meats, Inc., Jeromesville, Ohio) and were used within 24 hours postmortem. The optic nerves were dissected under microscopic visualization to expose the ON/LC (FIG. 1). […]
(§5) Three experimental groups of 6 eyes each were defined. In group 1, SWV across the optic nerve/lamina cribrosa complex and peripapillary scleral regions of interest were measured at 10 and 30 mmHg to represent a physiological range of pressures. […]

[3] = system: rabbit eyes; details: 370 nm light at 4.2 mW/cm2; cited from earlier work
[4] = system: peripapillary sclera; assay: Surface wave velocity (stiffness) of the peripapillary sclera of whole globes, Sonic Eye elastometer; set-up: species or system porcine; details: riboflavin 1% + UVA 30 min
Procedure: as §1, §2, §3, §4
Eighteen porcine eyes were obtained from a local abattoir (Heffelfingers Meats, Inc., Jeromesville, Ohio) and were used within 24 hours postmortem. The optic nerves were dissected under microscopic visualization to expose the ON/LC (FIG. 1). […] Replicate SWV measurements were obtained at a rate of 1 per second with a triggering foot pedal to produce at least 5 measurements that were subsequently averaged for each region of interest. A PC software interface converted the time-of-flight data to velocity in meters per second (m/s), and the velocity data were exported to Excel (v. 11, SP2; Microsoft Corp, Redmond, Wash.) and Minitab (v. 14.20; Minitab Inc, State College, Pa.) for statistical analysis.
as §5

[5] = system: porcine sclera; details: scleral strips; 1 hour glutaraldehyde, 5 days glyceraldehydes, 30 minutes UVA for riboflavin/UVA; cited from earlier work
[6] = system: human sclera; details: scleral strips; 1 hour glutaraldehyde, 5 days glyceraldehydes, 30 minutes UVA for riboflavin/UVA; cited from earlier work
[7] = system: keratoconus; details: topical riboflavin with UVA light exposure; cited from earlier work
[8] = system: human LC; details: strips incubated in 0.5 M agent over 5 days; cited from earlier work
[9] = system: human PS; details: strips incubated in 0.5 M agent over 5 days; cited from earlier work
[10] = system: retinal ganglion cells; details: by inhibiting nitric oxide synthase; cited from earlier work
[11] = system: cortical neurons; details: cited from earlier work; for Protection of neurons from the neurotoxic effect of 3-deoxyglucosone and methylglyoxal: cotreatment with aminoguanidine, pretreatment with N-acetylcysteine
[12] = system: internal limiting membrane of the retina; details: direct application; white light for 3 minutes; cited from earlier work

Compound: Cc1cc2nc3c(=O)[nH]c(=O)nc-3n(C[C@H](O)[C@H](O)[C@H](O)COP(=O)(O)O)c2cc1C [UVA+riboflavin, riboflavin-5-phosphate]
- Mean surface wave velocity of cornea after crosslinking ([1]; 0.1% riboflavin-5-phosphate drops every 5 min, UVA 4.2 mW/cm2 370 nm 30 min): 111.35±2.16 m/s
- Increase of mean surface wave velocity of cornea after crosslinking ([1]; from 93.6 to 111.3 m/s, p=0.032): 17.7 units

Compound: Cc1cc2nc3c(=O)[nH]c(=O)nc-3n(C[C@H](O)[C@H](O)[C@H](O)CO)c2cc1C [riboflavin/UVA, riboflavin]
- Change of SWV of the ON/LCC upon raising the IOP to 100 mmHg after crosslinking ([2]; riboflavin 1% + UVA 30 min, p=0.1): no change
- SWV (stiffness) of the ON/LCC after crosslinking ([2]; riboflavin 1% Q 5 min x6 + UVA ~365 nm 3 mW/cm^2 30 min to ON/LCC and PS, pre-treatment IOP, mean±SD): 32.8±1.1 m/s
- Retinal cell death after riboflavin and irradiation [3]: retinal pigment epithelium (RPE), photoreceptor and outer nuclear layer death
- SWV of the peripapillary sclera after crosslinking at 100 mmHg ([4]; Example 1 group 2, IOP 100 mmHg): 63.5±1.8 m/s
- SWV (stiffness) of the peripapillary sclera after crosslinking ([4]; Example 1 group 2, pre-treatment IOP, mean±SD): 55.7±1.5 m/s
- Stiffness of Peripapillary Sclera, Post-crosslinking Mean ± SD ([4]; Example 3 Group 1, Low IOP 10 mmHg): 85.5 ± 13.5 m/s
- Rise in porcine scleral stress (rigidity) [5]: 1.5 ×
- Rise in human scleral stress (rigidity) [6]: 29%
- Clinical effect in keratoconus [7]: used effectively as a stabilizing treatment for keratoconus

Compound: CC(=O)C=O [methylglyoxal]
- Increase of stress with 20% strain of human LC [8]: > 2 fold
- Increase of stress with 20% strain of human PS [9]: > 3 fold

Compound: N=C(N)NN [aminoguanidine]
- Neuroprotective effect to retinal ganglion cells [10]: neuroprotective effect
- Protection of neurons from the neurotoxic effect of 3-deoxyglucosone and methylglyoxal [11]: protected the neurons

Compound: CC(=O)N[C@@H](CS)C(=O)O [N-acetylcysteine]
- Protection of neurons from the neurotoxic effect of 3-deoxyglucosone and methylglyoxal [11]: protected the neurons

Compound: O=CC(=O)C[C@H](O)[C@H](O)CO [3-deoxyglucosone]
- Neurotoxic effect to cortical neurons [11]: neurotoxic effect

Compound: O=CC(O)CO (stereo not shown) [glyceraldehydes, glyceraldehyde]
- Increase of stress with 20% strain of human LC [8]: > 1.5 fold
- Rise in porcine scleral stress (rigidity) [5]: 5 ×
- Rise in human scleral stress (rigidity) [6]: 34%
- Increase of stress with 20% strain of human PS [9]: > 2 fold

Compound: CC1(C)C(/C=C/C=C/C=C/C=C2\N(CCCCS(=O)(=O)O)c3ccc4ccccc4c3C2(C)C)=[N+](CCCCS(=O)(=O)[O-])c2ccc3ccccc3c21 [ICG, indocyanine green]
- Stiffness of the internal limiting membrane of the retina [12]: increase the stiffness
